Several values for one entry are separate records, joined by “and”; a condition that tells them apart may be missing. Identical values can stand only once. Like-named read-outs stand apart in the source and are kept apart here.
Legend:
[1] = Viability (MTS) of 293T cells; type: cell-based, human; settings: human
In short: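 Adherent cells treated after overnight attachment, nine concentrations in triplicate. After 72 h, MTS/PMS added and incubated 4 h at 37 °C before absorbance at 490 nm. Background-subtracted viability expressed as percent of untreated controls and fitted by non-linear regression.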

Kasumi-1 cells = assay: Viability (MTS) of Kasumi-1 AML cells; type: cell-based, human; settings: for viability at 0.0411523 µM / viability at 0.37037 µM / viability at 1.11111 µM / viability at 3.33333 µM / viability at 10 µM / viability at […] / IC50: Homo sapiens; for viability at 0.0411523 µM: Kasumi 1, Concentration 0.0411523 uM; for viability at 0.0411523 µM / viability at 0.37037 µM / viability at 1.11111 µM / viability at 3.33333 µM / viability at 10 µM / viability at […]: Supplementary Fig. 12b; for viability at 0.37037 µM: Kasumi 1, Concentration 0.37037 uM; for viability at 1.11111 µM: Kasumi 1, Concentration 1.11111 uM; for viability at 3.33333 µM: Kasumi 1, Concentration 3.33333 uM; for viability at 10 µM: Kasumi 1, Concentration 10 uM; for viability at […]: Kasumi 1, Concentration […]; for IC50: Kasumi 1, 72 h
[2] = 293T cell viability, MTS absorbance 490 as percent of untreated control, mean of three wells, mean of 3 wells, normalised to own plate
[3] = 293T cell viability, MTS absorbance 490 as percent of untreated control, single replicate well, replicate well, normalised to own plate
[4] = 293T cell viability, MTS absorbance 490 as percent of untreated control, single replicate well, 3 uM, replicate well, normalised to own plate
[5] = Average of 3 wells, read-out: MTS viability, percent of 0 uM control, Average
[6] = single well, read-out: MTS viability, corrected absorbance 490 as percent of 0 uM control
[7] = Fig. 7c, read-out: IC50, viability of Kasumi-1 cells

Work on CC1(C)CCC(c2ccc(Cl)cc2)=C(CN2CCN(c3ccc(C(=O)NS(=O)(=O)c4ccc(N[C@H](CCN5CCOCC5)CSc5ccccc5)c(S(=O)(=O)C(F)(F)F)c4)cc3)CC2)C1 [ABT263, navitoclax] yielded a viability at 72 h, 0.00137174 µM [1] of 96.2%, a viability at 72 h, 0.00411523 µM [1] of 94.4% and a viability at 72 h, 0.037037 µM ([1]; 293T cell viability, MTS absorbance 490 as percent of untreated control, mean of three wells, 0.037037 uM, mean of 3 wells, normalised to own plate) of 107%. The viability at 72 h, 0.111111 µM ([1]; 293T cell viability, MTS absorbance 490 as percent of untreated control, mean of three wells, 0.111111 uM, mean of 3 wells, normalised to own plate) was 113%, the viability at 72 h, 0.333333 µM [1, 2] was 103% and the viability at 72 h, 1 µM [1, 2] was 98.5%. It also gave a viability at 72 h, 3 µM ([1]; 293T cell viability, MTS absorbance 490 as percent of untreated control, mean of three wells, 3 uM, mean of 3 wells, normalised to own plate) of 61.1%, a viability at 72 h, 0.333333 µM [1, 3] of 94.3% and a viability at 72 h, 1 µM [1, 3] of 93.3%. The viability at 72 h, 3 µM [1, 4] was 60.7%, the “Luminescence (raw plate reading)” value (Kasumi-1 cells; 3.90625 nM (plate column 2), Fig. 7a) was 652130 and 630259 and 658966 and 744397 and the “Luminescence (raw plate reading)” value (Kasumi-1 cells; 7.8125 nM (plate column 3), Fig. 7a) was 632892 and 633903 and 634701 and 712997. The “Luminescence (raw plate reading)” value (Kasumi-1 cells; 15.625 nM (plate column 4), Fig. 7a) was 642408 and 622919 and 622003 and 704279, the “Luminescence (raw plate reading)” value (Kasumi-1 cells; 31.25 nM (plate column 5), Fig. 7a) was 622577 and 612176 and 601421 and 652847 and the “Luminescence (raw plate reading)” value (Kasumi-1 cells; 62.5 nM (plate column 6), Fig. 7a) was 542999 and 553178 and 531814 and 597127. For the same compound, the “Luminescence (raw plate reading)” value (Kasumi-1 cells; 125 nM (plate column 7), Fig. 7a) was 381320 and 423693 and 412676 and 432347, the “Luminescence (raw plate reading)” value (Kasumi-1 cells; 250 nM (plate column 8), Fig. 7a) was 247450 and 230935 and 221189 and 256346 and the “Luminescence (raw plate reading)” value (Kasumi-1 cells; 500 nM (plate column 9), Fig. 7a) was 119937 and 119731 and 112901 and 107498. The “Luminescence (raw plate reading)” value (Kasumi-1 cells; 1000 nM (plate column 10), Fig. 7a) was 56843 and 48094 and 45547 and 41795, the “Luminescence (raw plate reading)” value (Kasumi-1 cells; 2000 nM = 2U (plate column 11), Fig. 7a) was 20891 and 18712 and 20895 and 17813 and the “Luminescence (raw plate reading)” value (Kasumi-1 cells; 4000 nM = 4U (plate column 12), Fig. 7a) was 11066 and 13361 and 10294 and 10997. For the same compound, the “Luminescence normalised to mean of the 0 concentration wells (= 100), viability” value (“Luminescence normalised to mean” below) (Kasumi-1 cells; 3.90625 (nM), Fig. 7a) was 95.2795 and 92.0841 and 96.2783 and 108.76, the “Luminescence normalised to mean” value (Kasumi-1 cells; 7.8125 (nM), Fig. 7a) was 92.4688 and 92.6165 and 92.7331 and 104.173 and the “Luminescence normalised to mean” value (Kasumi-1 cells; 15.625 (nM), Fig. 7a) was 93.8591 and 91.0117 and 90.8778 and 102.899. The “Luminescence normalised to mean” value (Kasumi-1 cells; 31.25 (nM), Fig. 7a) was 90.9617 and 89.442 and 87.8707 and 95.3843, the “Luminescence normalised to mean” value (Kasumi-1 cells; 62.5 (nM), Fig. 7a) was 79.3349 and 80.8221 and 77.7007 and 87.2433 and the “Luminescence normalised to mean” value (Kasumi-1 cells; 125 (nM), Fig. 7a) was 55.7128 and 61.9037 and 60.2941 and 63.1681. For the same compound, the “Luminescence normalised to mean” value (Kasumi-1 cells; 250 (nM), Fig. 7a) was 36.1537 and 33.7408 and 32.3168 and 37.4535, the “Luminescence normalised to mean” value (Kasumi-1 cells; 500 (nM), Fig. 7a) was 17.5234 and 17.4933 and 16.4954 and 15.706 and the “Luminescence normalised to mean” value (Kasumi-1 cells; 1000 (nM), Fig. 7a) was 8.305 and 7.027 and 6.655 and 6.106. The “Luminescence normalised to mean” value (Kasumi-1 cells; 2000 (nM, 2U), Fig. 7a) was 3.052 and 2.734 and 3.053 and 2.603, the “Luminescence normalised to mean” value (Kasumi-1 cells; 4000 (nM, 4U), Fig. 7a) was 1.6168 and 1.952 and 1.504 and 1.607 and the viability at 0.0411523 µM (Kasumi-1 cells; [5]) was 92.4%. It also gave a viability at 0.0411523 µM (Kasumi-1 cells; [6]) of 91%, a viability at 0.37037 µM (Kasumi-1 cells; [5]) of 20.7% and a viability at 0.37037 µM (Kasumi-1 cells; [6]) of 21.4%. The viability at 1.11111 µM (Kasumi-1 cells; [5]) was 18%, the viability at 1.11111 µM (Kasumi-1 cells; [6]) was 16.5% and the viability at 3.33333 µM (Kasumi-1 cells; [5]) was 13.1%. The viability at 3.33333 µM (Kasumi-1 cells; [6]) was 13.4%, the viability at 10 µM (Kasumi-1 cells; [5]) was 12.1% and the viability at 10 µM (Kasumi-1 cells; [6]) was 12.3%. For the same compound, the viability at […] (Kasumi-1 cells; [5]) was 78.8%, the viability at […] (Kasumi-1 cells; [6]) was 78.2% and the IC50 (Kasumi-1 cells; Fig. 7a, read-out: IC50, viability of Kasumi-1 AML cells) was 156 nM. It also gave an IC50 (Kasumi-1 cells; [7]) of 131 nM.

Work on Cc1ncsc1-c1ccc([C@H](C)NC(=O)[C@@H]2C[C@@H](O)CN2C(=O)[C@@H](NC(=O)CCCCCC(=O)N2CCN(CC[C@H](CSc3ccccc3)Nc3ccc(S(=O)(=O)NC(=O)c4ccc(N5CCN(CC6=C(c7ccc(Cl)cc7)CCC(C)(C)C6)CC5)cc4)cc3S(=O)(=O)C(F)(F)F)CC2)C(C)(C)C)cc1 [DT2216] yielded a viability at 72 h, 0.00137174 µM [1] of 106%, a viability at 72 h, 0.00411523 µM [1] of 104% and a viability at 72 h, 0.037037 µM [1] of 106%. For the same compound, the viability at 72 h, 0.111111 µM [1] was 110%, the viability at 72 h, 3 µM [1] was 90.6% and the viability at 72 h, 0.037037 µM ([1]; 293T cell viability, MTS absorbance 490 as percent of untreated control, single replicate well, 0.037037 uM, replicate well, normalised to own plate) was 105%. It also gave a viability at 72 h, 0.111111 µM ([1]; 293T cell viability, MTS absorbance 490 as percent of untreated control, single replicate well, 0.111111 uM, replicate well, normalised to own plate) of 109%, a viability at 72 h, 3 µM [1, 4] of 89.4% and an IC50 (Kasumi-1 cells; [7]) of 1150 nM. The “Luminescence (raw plate reading)” value (Kasumi-1 cells; Kasumi, 24h, 2um (plate column 11), Fig. 7c) was 404633 and 365594 and 354853 and 362278 and the “Luminescence (raw plate reading)” value (Kasumi-1 cells; Kasumi, 24h, 4um (plate column 12), Fig. 7c) was 138608 and 119804 and 124492 and 119916.

Reference: article PMC8617031, “Development of a BCL-xL and BCL-2 dual degrader with improved anti-leukemic activity,” (Nature Communications, 2021)
